Reference: ChEMBL document CHEMBL2073947, “The human multidrug resistance protein MRP4 functions as a prostaglandin efflux transporter and is inhibited by nonsteroidal antiinflammatory drugs” (Proc Natl Acad Sci U S A, 2003)

Experiments:
[1] = molecular target: T1, MRP4 (ATP-binding cassette sub-family C member 4) (Homo sapiens, UniProt O15439); experiment: TP_TRANSPORTER: inhibition of alaninyl-d4TMP in the presence of Prostaglandin F1alpha at a concentration of 20uM in membrane vesicles from MRP4-expressing Sf9 cells; assay type: functional, cell membranes, Membrane vesicle; parameters: scale not given: the % may be the effect or the level left; details: probe alaninyl-d4TMP, read-out: Activity
T1 sequence (O15439 whole entry): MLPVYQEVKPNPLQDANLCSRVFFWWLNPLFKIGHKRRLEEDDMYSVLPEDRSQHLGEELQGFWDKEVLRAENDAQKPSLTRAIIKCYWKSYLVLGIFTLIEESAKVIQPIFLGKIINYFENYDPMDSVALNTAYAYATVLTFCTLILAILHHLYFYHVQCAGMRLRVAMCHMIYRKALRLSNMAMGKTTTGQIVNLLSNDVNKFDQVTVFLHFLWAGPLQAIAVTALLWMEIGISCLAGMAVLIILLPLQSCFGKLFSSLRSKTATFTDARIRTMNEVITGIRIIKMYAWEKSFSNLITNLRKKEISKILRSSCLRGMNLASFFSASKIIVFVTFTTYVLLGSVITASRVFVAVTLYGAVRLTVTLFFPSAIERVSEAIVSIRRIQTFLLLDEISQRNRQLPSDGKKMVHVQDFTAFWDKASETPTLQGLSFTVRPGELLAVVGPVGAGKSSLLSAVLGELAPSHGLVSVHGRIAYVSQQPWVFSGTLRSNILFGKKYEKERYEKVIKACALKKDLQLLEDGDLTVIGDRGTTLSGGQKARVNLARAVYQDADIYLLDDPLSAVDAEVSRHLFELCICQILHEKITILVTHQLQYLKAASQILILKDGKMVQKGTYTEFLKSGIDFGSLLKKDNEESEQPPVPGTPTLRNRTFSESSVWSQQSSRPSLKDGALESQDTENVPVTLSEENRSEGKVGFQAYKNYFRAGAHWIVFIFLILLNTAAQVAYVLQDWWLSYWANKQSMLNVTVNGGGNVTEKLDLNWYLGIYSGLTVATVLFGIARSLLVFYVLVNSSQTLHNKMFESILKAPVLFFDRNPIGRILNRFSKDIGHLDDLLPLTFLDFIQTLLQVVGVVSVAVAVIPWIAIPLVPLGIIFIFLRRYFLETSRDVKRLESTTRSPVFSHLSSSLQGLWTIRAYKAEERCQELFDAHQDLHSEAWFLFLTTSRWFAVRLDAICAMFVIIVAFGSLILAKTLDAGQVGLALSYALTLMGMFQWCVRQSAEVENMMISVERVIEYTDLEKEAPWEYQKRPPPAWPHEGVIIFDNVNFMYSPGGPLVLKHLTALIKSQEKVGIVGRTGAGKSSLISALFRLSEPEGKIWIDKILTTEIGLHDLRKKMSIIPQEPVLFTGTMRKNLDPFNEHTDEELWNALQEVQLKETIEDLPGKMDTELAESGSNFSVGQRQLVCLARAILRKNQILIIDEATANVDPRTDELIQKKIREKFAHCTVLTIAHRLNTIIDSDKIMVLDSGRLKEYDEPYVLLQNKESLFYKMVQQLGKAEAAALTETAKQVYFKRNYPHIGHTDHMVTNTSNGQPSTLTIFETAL

[2] = molecular target: T1, MRP4 (ATP-binding cassette sub-family C member 4); experiment: TP_TRANSPORTER: inhibition of E217betaG in the presence of Indoprofen at a concentration of 50uM in membrane vesicles from MRP4-expressing Sf9 cells; assay type: functional, cell membranes, Membrane vesicle; parameters: scale not given: the % may be the effect or the level left; details: probe E217betaG, read-out: Activity
[3] = molecular target: MRP5 (ATP-binding cassette sub-family C member 5) (Homo sapiens, UniProt O15440); experiment: TP_TRANSPORTER: inhibition of alaninyl-d4TMP by Prostaglandin E1 at a concentration of 20uM in membrane vesicle from MRP5-expressing HEK293 cell; assay type: functional, cell membranes; parameters: scale not given: the % may be the effect or the level left; details: membrane vesicles from MRP5-expressing HEK293 cells, probe alaninyl-d4TMP, read-out: Activity
Chain of MRP5 (ATP-binding cassette sub-family C member 5) (O15440 whole entry): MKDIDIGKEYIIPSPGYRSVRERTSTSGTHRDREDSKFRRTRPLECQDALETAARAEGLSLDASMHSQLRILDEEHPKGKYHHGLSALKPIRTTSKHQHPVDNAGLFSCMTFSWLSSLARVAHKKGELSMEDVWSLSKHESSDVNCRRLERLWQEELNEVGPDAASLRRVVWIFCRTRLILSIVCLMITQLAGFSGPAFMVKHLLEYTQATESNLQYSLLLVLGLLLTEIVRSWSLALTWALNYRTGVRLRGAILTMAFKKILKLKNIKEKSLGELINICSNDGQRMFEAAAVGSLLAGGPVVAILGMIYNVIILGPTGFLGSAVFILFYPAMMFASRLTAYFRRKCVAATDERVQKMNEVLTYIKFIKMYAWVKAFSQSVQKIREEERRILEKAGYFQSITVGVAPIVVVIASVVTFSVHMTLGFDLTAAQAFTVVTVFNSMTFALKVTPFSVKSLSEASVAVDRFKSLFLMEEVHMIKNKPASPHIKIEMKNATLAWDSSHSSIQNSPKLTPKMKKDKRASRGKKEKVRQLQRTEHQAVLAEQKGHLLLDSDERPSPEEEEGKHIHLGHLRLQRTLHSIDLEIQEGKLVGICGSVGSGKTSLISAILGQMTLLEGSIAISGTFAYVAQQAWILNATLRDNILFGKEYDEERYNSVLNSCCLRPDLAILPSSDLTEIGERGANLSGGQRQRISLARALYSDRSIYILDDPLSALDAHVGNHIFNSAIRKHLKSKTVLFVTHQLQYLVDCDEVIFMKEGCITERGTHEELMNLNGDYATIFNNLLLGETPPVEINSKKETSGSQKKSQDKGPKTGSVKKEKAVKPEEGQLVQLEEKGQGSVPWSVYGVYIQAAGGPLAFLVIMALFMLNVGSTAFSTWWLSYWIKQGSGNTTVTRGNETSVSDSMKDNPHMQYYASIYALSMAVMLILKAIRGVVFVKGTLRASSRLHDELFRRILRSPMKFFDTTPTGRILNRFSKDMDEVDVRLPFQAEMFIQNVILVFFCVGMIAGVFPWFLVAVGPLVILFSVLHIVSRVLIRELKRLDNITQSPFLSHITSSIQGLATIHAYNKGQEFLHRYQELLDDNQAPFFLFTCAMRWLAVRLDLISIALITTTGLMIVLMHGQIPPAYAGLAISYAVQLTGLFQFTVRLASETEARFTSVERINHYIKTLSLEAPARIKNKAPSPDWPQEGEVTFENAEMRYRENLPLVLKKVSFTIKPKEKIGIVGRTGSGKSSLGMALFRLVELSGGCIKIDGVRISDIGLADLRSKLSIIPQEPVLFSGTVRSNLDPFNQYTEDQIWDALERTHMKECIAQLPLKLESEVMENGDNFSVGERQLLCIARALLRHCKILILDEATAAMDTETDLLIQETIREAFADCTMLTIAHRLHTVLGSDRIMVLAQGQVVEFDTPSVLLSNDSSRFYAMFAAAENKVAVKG

[4] = molecular target: T2, ATP-binding cassette sub-family C member 4 (Homo sapiens, UniProt O15439); experiment: TP_TRANSPORTER: inhibition of E217betaG in the presence of Flurbiprofen at a concentration of 50uM in membrane vesicles from MRP4-expressing Sf9 cells; assay type: functional, cell membranes, Membrane vesicle; parameters: scale not given: the % may be the effect or the level left; details: sf9, 50 µM
T2 sequence (O15439 whole entry): T1 sequence (O15439 whole entry)

[5] = molecular target: T3, MRP1 (Multidrug resistance-associated protein 1) (Homo sapiens, UniProt P33527); experiment: TP_TRANSPORTER: inhibition of alaninyl-d4TMP in the presence of Thromboxane B2 at a concentration of 20uM in membrane vesicles from MRP1-expressing Sf9 cells; assay type: functional, cell membranes, Membrane vesicle; parameters: scale not given: the % may be the effect or the level left; details: probe alaninyl-d4TMP, read-out: Activity
T3 sequence (P33527 whole entry): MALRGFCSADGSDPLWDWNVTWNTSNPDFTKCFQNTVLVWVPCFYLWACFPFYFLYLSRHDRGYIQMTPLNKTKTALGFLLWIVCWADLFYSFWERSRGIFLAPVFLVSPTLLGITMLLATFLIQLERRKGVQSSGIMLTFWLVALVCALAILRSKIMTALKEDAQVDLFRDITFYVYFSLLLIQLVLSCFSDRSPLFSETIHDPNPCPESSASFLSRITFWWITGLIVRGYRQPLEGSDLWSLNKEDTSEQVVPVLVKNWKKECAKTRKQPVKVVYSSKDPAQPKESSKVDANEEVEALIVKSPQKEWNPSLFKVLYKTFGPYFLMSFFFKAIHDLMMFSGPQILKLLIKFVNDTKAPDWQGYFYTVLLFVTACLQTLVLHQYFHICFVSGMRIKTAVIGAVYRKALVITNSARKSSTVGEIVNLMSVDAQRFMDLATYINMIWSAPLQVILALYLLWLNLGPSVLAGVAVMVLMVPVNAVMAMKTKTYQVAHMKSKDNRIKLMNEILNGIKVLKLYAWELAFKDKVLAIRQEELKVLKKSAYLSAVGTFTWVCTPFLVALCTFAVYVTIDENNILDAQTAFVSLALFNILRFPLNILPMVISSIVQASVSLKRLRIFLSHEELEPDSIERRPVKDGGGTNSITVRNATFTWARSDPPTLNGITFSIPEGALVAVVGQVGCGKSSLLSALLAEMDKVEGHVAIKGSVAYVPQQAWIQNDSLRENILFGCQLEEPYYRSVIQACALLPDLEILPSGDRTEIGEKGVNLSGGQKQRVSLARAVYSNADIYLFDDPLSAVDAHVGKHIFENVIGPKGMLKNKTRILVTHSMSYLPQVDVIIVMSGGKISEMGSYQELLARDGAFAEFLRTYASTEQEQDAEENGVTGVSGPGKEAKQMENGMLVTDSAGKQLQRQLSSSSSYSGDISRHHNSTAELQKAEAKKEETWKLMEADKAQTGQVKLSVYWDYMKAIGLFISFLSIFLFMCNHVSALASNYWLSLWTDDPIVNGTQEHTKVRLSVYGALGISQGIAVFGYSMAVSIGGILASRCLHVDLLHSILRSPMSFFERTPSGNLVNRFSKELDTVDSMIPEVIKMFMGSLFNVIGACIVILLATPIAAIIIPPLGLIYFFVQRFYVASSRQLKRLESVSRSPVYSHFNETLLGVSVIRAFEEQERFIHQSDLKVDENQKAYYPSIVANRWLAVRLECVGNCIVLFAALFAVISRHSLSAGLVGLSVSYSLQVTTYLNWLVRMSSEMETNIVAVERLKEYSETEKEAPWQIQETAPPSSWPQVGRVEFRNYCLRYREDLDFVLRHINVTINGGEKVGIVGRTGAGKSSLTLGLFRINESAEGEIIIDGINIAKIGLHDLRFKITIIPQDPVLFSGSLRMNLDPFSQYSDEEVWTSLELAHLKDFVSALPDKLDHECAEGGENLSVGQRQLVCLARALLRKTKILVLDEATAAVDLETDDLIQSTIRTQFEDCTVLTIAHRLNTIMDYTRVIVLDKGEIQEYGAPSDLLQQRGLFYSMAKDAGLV

[6] = molecular target: Multidrug resistance associated protein (Homo sapiens) (UniProt Q96QA9); experiment: TP_TRANSPORTER: inhibition of alaninyl-d4TMP by Thromboxane B2 at a concentration of 20uM in membrane vesicle from MRP3-expressing Sf9 cells; assay type: functional, cell membranes; parameters: scale not given: the % may be the effect or the level left
Chain of Multidrug resistance associated protein (Homo sapiens) (Q96QA9 as listed by the source): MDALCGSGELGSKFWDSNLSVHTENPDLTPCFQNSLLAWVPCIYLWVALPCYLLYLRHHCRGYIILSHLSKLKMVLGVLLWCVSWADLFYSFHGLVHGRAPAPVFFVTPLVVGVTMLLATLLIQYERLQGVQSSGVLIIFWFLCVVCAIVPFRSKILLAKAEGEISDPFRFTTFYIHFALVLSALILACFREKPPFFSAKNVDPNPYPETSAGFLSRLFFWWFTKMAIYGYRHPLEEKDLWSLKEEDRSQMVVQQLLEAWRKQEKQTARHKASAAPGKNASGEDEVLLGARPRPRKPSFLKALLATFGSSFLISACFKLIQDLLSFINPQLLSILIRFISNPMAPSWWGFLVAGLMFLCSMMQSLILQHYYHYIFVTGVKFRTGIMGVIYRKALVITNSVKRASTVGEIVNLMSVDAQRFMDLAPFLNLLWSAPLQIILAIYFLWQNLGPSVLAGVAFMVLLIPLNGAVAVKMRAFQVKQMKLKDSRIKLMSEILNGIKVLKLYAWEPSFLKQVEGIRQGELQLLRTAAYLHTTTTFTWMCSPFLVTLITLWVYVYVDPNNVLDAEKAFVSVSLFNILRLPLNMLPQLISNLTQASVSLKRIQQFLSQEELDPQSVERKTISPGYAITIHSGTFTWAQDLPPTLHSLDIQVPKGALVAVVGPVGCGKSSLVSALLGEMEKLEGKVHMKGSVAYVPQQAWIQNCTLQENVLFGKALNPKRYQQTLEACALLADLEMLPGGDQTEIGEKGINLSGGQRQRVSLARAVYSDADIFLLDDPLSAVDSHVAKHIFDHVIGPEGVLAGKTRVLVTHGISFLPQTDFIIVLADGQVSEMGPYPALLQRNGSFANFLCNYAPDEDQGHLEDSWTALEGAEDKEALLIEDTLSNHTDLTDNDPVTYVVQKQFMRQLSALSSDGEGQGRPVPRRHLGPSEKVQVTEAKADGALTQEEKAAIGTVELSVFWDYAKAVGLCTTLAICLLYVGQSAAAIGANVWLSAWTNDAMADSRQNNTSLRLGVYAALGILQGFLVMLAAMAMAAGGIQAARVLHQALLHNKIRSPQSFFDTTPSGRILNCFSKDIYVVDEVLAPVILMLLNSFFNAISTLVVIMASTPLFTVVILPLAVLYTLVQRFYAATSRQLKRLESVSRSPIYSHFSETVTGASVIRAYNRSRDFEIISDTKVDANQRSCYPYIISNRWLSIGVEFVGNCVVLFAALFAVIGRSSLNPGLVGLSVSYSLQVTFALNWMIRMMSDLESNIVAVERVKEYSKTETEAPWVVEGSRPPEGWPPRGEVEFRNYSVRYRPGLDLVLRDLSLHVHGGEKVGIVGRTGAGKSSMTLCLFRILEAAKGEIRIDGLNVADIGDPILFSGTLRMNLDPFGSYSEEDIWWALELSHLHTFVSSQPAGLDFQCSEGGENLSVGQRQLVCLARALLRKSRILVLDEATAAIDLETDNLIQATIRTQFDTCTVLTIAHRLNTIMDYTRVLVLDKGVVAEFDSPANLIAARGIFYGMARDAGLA

[7] = molecular target: ATP-binding cassette sub-family C member 5 (Homo sapiens, UniProt O15440); experiment: TP_TRANSPORTER: inhibition of alaninyl-d4TMP by Thromboxane B2 at a concentration of 20uM in membrane vesicle from MRP5-expressing HEK293 cells; assay type: functional, cell membranes; parameters: scale not given: the % may be the effect or the level left; details: hek293, 20 µM
[8] = molecular target: T1, MRP4 (ATP-binding cassette sub-family C member 4); experiment: TP_TRANSPORTER: inhibition of alaninyl-d4TMP in the presence of Thromboxane B2 at a concentration of 20uM in membrane vesicles from MRP4-expressing Sf9 cells; assay type: functional, cell membranes, Membrane vesicle; parameters: scale not given: the % may be the effect or the level left; details: probe alaninyl-d4TMP, read-out: Activity
[9] = molecular target: T3, MRP1 (Multidrug resistance-associated protein 1); experiment: TP_TRANSPORTER: inhibition of E217betaG in the presence of Ibuprofen at a concentration of 200uM in membrane vesicles from MRP1-expressing Sf9 cells; assay type: functional, cell membranes, Membrane vesicle; parameters: scale not given: the % may be the effect or the level left; details: probe E217betaG, read-out: Activity
[10] = molecular target: T2, ATP-binding cassette sub-family C member 4; experiment: TP_TRANSPORTER: inhibition of E217betaG in the presence of Ibuprofen at a concentration of 200uM in membrane vesicles from MRP4-expressing Sf9 cells; assay type: functional, cell membranes, Membrane vesicle; parameters: scale not given: the % may be the effect or the level left; details: sf9, 200 µM
[11] = molecular target: Multidrug resistance-associated protein 1 (Homo sapiens, UniProt P33527); experiment: TP_TRANSPORTER: inhibition of E217betaG in the presence of Indomethacin at a concentration of 50uM in membrane vesicles from MRP1-expressing Sf9 cells; assay type: functional, cell membranes, Membrane vesicle; parameters: scale not given: the % may be the effect or the level left; details: sf9, 50 µM
Chain of Multidrug resistance-associated protein 1 (P33527 whole entry): as the sequence (P33527 whole entry) above

[12] = molecular target: T2, ATP-binding cassette sub-family C member 4; experiment: TP_TRANSPORTER: inhibition of E217betaG in the presence of Indomethacin at a concentration of 50uM in membrane vesicles from MRP4-expressing Sf9 cells; assay type: functional, cell membranes, Membrane vesicle; parameters: scale not given: the % may be the effect or the level left; details: sf9, 50 µM
[13] = substrate: CCCCC[C@H](O)/C=C/[C@H]1[C@H](O)CC(=O)[C@@H]1C/C=C\CCCC(=O)O; experiment: (§1) TP_TRANSPORTER: uptake (vesicle) in membrane vesicles from MRP4-expressing Sf9 cells; assay type: functional, cell membranes
[14] = substrate: CCCCC[C@H](O)/C=C/[C@H]1[C@H](O)CC(=O)[C@@H]1CCCCCCC(=O)O; experiment: as §1; assay type: functional, cell membranes

CCCCC[C@H](O)/C=C/[C@@H]1[C@@H](CCCCCCC(=O)O)[C@@H](O)C[C@H]1O [PROSTAGLANDIN F1ALPHA] gave an activity at 20 µM [1] of 29%.

CC(C(=O)O)c1ccc(N2Cc3ccccc3C2=O)cc1 (centres undefined) [INDOPROFEN] gave an activity at 50 µM [2] of 17%.

Work on CCCCC[C@H](O)/C=C/[C@H]1[C@H](O)CC(=O)[C@@H]1CCCCCCC(=O)O [ALPROSTADIL] yielded an activity at 20 µM [3] of 69%.

With CC(C(=O)O)c1ccc(-c2ccccc2)c(F)c1 (centres undefined) [FLURBIPROFEN] the Activity [4] was 23%.

In the case of CCCCC[C@H](O)/C=C/[C@H]1OC(O)C[C@H](O)[C@@H]1C/C=C\CCCC(=O)O (some centres undefined) [THROMBOXANE B2], the activity at 20 µM [5] is reported as 66%, the Activity [6] is reported as 76% and the Activity [7] is reported as 77%. For the same molecule, the activity at 20 µM [8] was 29%.

CC(C)Cc1ccc(C(C)C(=O)O)cc1 (centres undefined) [IBUPROFEN] showed an activity at 200 µM [9] of 79% and an Activity [10] of 31%.

With COc1ccc2c(c1)c(CC(=O)O)c(C)n2C(=O)c1ccc(Cl)cc1 [INDOMETHACIN] the Activity [11] was 56% and the Activity [12] was 11%.

B1: ATP-binding cassette sub-family C member 4 (Homo sapiens) (protein)
chain: T1 sequence (O15439 whole entry)
B1 was tested, and the Km [13] was 3.4 µM and the Km [14] was 2.1 µM.
